Measurements as given in patent publication US8394969B2, “Cyclic benzimidazole derivatives useful as anti-diabetic agents” (Merck Sharp & Dohme Corp., priority 2008, dated 2013).
Structures can show the parent of a compound that is named as a salt.

target: recombinant human AMPK complex 1 (containing α1β1γ1) (Homo sapiens, UniProt Q13131+Q9Y478); assay: […] (in vitro AMPK activation assay); type: biochemical; conditions: not given
Sequence (Q13131 whole entry): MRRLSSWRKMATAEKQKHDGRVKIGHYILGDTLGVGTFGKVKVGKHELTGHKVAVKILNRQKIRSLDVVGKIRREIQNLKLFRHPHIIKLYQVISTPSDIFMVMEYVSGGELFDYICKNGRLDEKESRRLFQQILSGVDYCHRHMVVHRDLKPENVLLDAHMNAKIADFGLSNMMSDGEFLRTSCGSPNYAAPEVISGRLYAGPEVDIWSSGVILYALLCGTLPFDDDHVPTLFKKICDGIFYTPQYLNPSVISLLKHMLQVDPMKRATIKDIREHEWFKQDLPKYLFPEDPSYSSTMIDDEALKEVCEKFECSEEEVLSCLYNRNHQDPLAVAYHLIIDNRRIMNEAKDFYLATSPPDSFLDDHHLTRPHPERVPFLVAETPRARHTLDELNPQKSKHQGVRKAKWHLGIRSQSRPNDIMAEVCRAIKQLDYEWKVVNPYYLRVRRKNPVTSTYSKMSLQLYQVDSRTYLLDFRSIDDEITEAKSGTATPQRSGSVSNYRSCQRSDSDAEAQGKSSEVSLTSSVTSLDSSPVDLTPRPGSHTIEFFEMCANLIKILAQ
Sequence (Q9Y478 whole entry): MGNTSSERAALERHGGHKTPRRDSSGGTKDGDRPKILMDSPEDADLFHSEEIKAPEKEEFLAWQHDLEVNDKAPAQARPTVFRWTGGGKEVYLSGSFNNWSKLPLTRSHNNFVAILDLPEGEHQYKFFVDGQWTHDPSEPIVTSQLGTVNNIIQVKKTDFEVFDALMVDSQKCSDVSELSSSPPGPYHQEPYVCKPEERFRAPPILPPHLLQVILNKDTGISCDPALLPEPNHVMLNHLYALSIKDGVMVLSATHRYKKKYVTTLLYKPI
Sequence (P54619 whole entry partner): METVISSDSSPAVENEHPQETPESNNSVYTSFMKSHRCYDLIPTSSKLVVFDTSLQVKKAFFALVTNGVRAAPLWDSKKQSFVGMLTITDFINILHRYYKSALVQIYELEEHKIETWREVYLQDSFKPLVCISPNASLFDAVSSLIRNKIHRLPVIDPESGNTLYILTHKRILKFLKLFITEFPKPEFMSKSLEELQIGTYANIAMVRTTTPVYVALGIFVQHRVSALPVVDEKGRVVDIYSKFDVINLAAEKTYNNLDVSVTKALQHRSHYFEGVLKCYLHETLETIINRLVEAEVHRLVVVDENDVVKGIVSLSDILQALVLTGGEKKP

| Compound | % Maximum AMP Activation of human AMPK Complex 1 |
| --- | --- |
| COc1ccc(-c2cc3nc(Oc4ccc(C)c(C(=O)O)c4)[nH]c3cc2Cl)c(F)c1.N [Example 342, Ammonium 5-{[6-chloro-5-(2-fluoro-4-methoxyphenyl)-1H-benzimidazol-2-yl]oxy}-2-methylbenzoate] | greater than 80% |

same assay, conditions: read-out: % Maximum AMP Activation of human AMPK Complex 1, recombinant human AMPK complex 1 (α1β1γ1); basal activity subtracted

| Compound | Emax [%] |
| --- | --- |
| CSc1ccc(-c2cc3nc(Oc4ccc(C)c(C(=O)O)c4)[nH]c3cc2Cl)cc1 [Example 343, Ammonium 5-({6-chloro-5-[4-(methylthio)phenyl]-1H-benzimidazol-2-yl}oxy)-2-methylbenzoate] | > 80 |
| Cc1cc(-c2cc3nc(Oc4ccc(C)c(C(=O)O)c4)[nH]c3cc2Cl)ccc1F [Example 328, Ammonium 5-{[6-chloro-5-(4-fluoro-3-methylphenyl-1H-benzimidazol-2-yl]oxy}-2-methylbenzoate] | > 80 |
| Cc1ccc(Oc2nc3cc(-c4ccccc4C(C)C)c(Cl)cc3[nH]2)cc1C(=O)O [Example 329, Ammonium 5-{[6-chloro-5-(2-isopropylphenyl)-1H-benzimidazol-2-yl]oxy}-2-methylbenzoate] | > 80 |
| Cc1ccc(Oc2nc3cc(-c4ccc(C(F)(F)F)cc4)c(Cl)cc3[nH]2)cc1C(=O)O [Example 337, Ammonium 5-({6-chloro-5-[4-(trifluoromethyl)phen-yl]-1H-benzimidazol-2-yl}oxy)-2-methylbenzoate] | > 80 |

same assay, conditions: recombinant human AMPK complex 1 (α1β1γ1); basal activity subtracted; read-out: % Maximum AMP Activation of human AMPK Complex 1

| Compound | Emax [%] |
| --- | --- |
| COc1ccc2cc(C#Cc3cc4nc(Oc5ccc(C)c(C(=O)O)c5)[nH]c4cc3Cl)ccc2c1 [Example 94, 5-[6-Chloro-5-(6-methoxy-naphthalen-2-ylethynyl)-1H-benzoimidazol-2-yloxy]-2-methyl-benzoic acid] | > 80 |
| Cc1ccc(Oc2nc3cc(-c4ccc5c(c4)CCN5C(C)C)c(Cl)cc3[nH]2)cc1C(=O)O [Example 279, 5-[6-Chloro-5-(1-isopropyl-2,3-dihydro-1H-indol-5-yl)-1H-benzoimidazol-2-yloxy]-2-methyl-benzoic acid] | > 80 |
| Cc1ccc(Oc2nc3cc(C#CC4(O)CCCC4)c(Cl)cc3[nH]2)cc1C(=O)O [Example 135, 5[6-Chloro-5-(1-hydroxy-cyclopentylethynyl)-1H-benzoimidazol-2-yloxy]-2-methyl-benzoic acid] | > 80 |
| Cc1ccc(Oc2nc3cc(C#Cc4ccc(-n5cccn5)cc4)c(Cl)cc3[nH]2)cc1C(=O)O [Example 71, 5-[6-Chloro-5-(4-pyrazol-1-yl-phenylethynyl)-1H-benzoimidazol-2-yloxy]-2-methyl-benzoic acid] | > 80 |
| Cc1ccc(Oc2nc3cc(C#Cc4ccc(O)cc4)c(Cl)cc3[nH]2)cc1C(=O)O [Example 116, 5-[6-Chloro-5-(4-hydroxy-phenylethynyl)-1H-benzoimidazol-2-yloxy]-2-methyl-benzoic acid] | > 80 |
| O=C(O)C(O)c1cccc(Oc2nc3cc(-c4ccc(-c5ccccc5)cc4)c(Cl)cc3[nH]2)c1 (centres unmarked) [Example 19] | > 80 |
| Cc1ccc(Oc2nc3cc(-c4ccc5[nH]cnc5c4)c(Cl)cc3[nH]2)cc1C(=O)O [Example 140, 2-(3-Carboxy-4-methyl-phenoxy)-6-chloro-1H,1′H-[5,5′]bibenzoimidazolyl-3-ium; chloride] | > 80 |
| Cc1ccc(Oc2nc3cc(-c4ccc(-c5ccccc5)s4)c(Cl)cc3[nH]2)cc1C(=O)O [Example 359, 5-{6-Chloro-5-(5-phenyl-thiophen-2-yl)-1H-benzoimidazol-2-yloxy}-2-methyl-benzoic acid] | > 80 |
| Cc1ccc(Oc2nc3cc(C#Cc4ccc(-n5ccnc5)cc4)c(Cl)cc3[nH]2)cc1C(=O)O [Example 86, 5-[6-Chloro-5-(4-imidazol-1-yl-phenylethynyl)-1H-benzoimidazol-2-yloxy]-2-methyl-benzoic acid] | > 80 |
| COC(=O)c1cc(Oc2nc3cc(C#Cc4ccc(OC(F)(F)F)cc4)c(Cl)cc3[nH]2)ccc1C [Example 98, 5-[6-Chloro-5-(4-trifluoromethoxy-phenylethynyl)-1H-benzoimidazol-2-yloxy]-2-methyl-benzoic acid methyl ester] | > 80 |
| Cc1ccc(Oc2nc3cc(-c4ccc(C(C)C)c5c4ccn5C)c(Cl)cc3[nH]2)cc1C(=O)O [Example 272, 5-[6-Chloro-5-(7-isopropyl-1-methyl-1H-indol-4-yl)-1H-benzoimidazol-2-yloxy]-2-methyl-benzoic acid] | > 80 |
| Cc1ccc(Oc2nc3cc(C#Cc4ccc(-c5nnc(O)[nH]5)cc4)c(Cl)cc3[nH]2)cc1C(=O)O [Example 77, 5-{6-Chloro-5-[4-(5-hydroxy-4H-[1,2,4]triazol-3-yl)-phenylethynyl]-1H-benzoimidazol-2-yloxy}-2-methyl-benzoic acid] | > 80 |
| Cc1ccc(Oc2nc3cc(C#Cc4ccc(-c5ccccn5)cc4)c(Cl)cc3[nH]2)cc1C(=O)O [Example 90, 5-[6-Chloro-5-(4-pyridin-2-yl-phenylethynyl)-1H-benzoimidazol-2-yloxy]-2-methyl-benzoic acid] | > 80 |
| Cc1ccc(Oc2nc3cc(-c4ccc(C(=O)O)c5c4c(C)cn5C)c(Cl)cc3[nH]2)cc1C(=O)O [Example 270, 4-[2-(3-Carboxy-4-methyl-phenoxy)-6-chloro-1H-benzoimidazol-5-yl]-1,3-dimethyl-1H-indole-7-carboxylic acid] | > 80 |
| COC(=O)c1cc(Oc2nc3cc(-c4ccc(-c5ccc(=O)n(C(F)F)c5)cc4)c(Cl)cc3[nH]2)ccc1C [Example 163, 5-{6-Chloro-5-[4-(1-difluoromethyl-6-oxo-1,6-dihydro-pyridin-3-yl)-phenyl]-1H-benzoimidazol-2-yloxy}-2-methyl-benzoic acid methyl ester] | > 80 |
| Cc1ccc(Oc2nc3cc(-c4ccc5onc(C)c5c4)c(Cl)cc3[nH]2)cc1C(=O)O [Example 141, 5-[6-Chloro-5-(3-methyl-benzo[d]isoxazol-5-yl)-1H-benzoimidazol-2-yloxy]-2-methyl-benzoic acid] | > 80 |
| Cc1ccc(Oc2nc3cc(C#Cc4cccc(F)c4)c(Cl)cc3[nH]2)cc1C(=O)O [Example 111, 5-[6-Chloro-5-(3-fluoro-phenylethynyl)-1H-benzoimidazol-2-yloxy]-2-methyl-benzoic acid] | > 80 |
| COc1cccc(-c2ccc(-c3cc4nc(Oc5ccc(C)c(C(=O)O)c5)[nH]c4cc3Cl)cc2)c1 [Example 187, 5-{[6-chloro-5-(3′-methoxybiphenyl-4-yl)-1H-benzimidazol-2-yl]oxy}-2-methylbenzoic acid] | > 80 |
| Cc1ccc(Oc2nc3cc(-c4ccc5c(C)c[nH]c5c4)c(Cl)cc3[nH]2)cc1C(=O)O [Example 291, 5-[6-Chloro-5-(3-methyl-1H-indol-6-yl)-1H-benzoimidazol-2-yloxy]-2-methyl-benzoic acid] | > 80 |
| Cc1ccc(Oc2nc3cc(C4=CCN(c5ncccn5)CC4)c(Cl)cc3[nH]2)cc1C(=O)O [Example 158, 2-(3-carboxy-4-methylphenoxy)-6-chloro-5-(1-pyrimidin-2-yl-1,2,3,6-tetrahydropyridin-4-yl)-1H-3,1-benzimidazol-3-ium trifluoroacetate] | > 80 |

same assay, conditions: recombinant human AMPK complex 1 (α1β1γ1); read-out: EC50

| Compound | EC50 [nM] |
| --- | --- |
| Cc1ccc(Oc2nc3cc(-c4ccc(-c5ccccc5)cc4)c(F)cc3[nH]2)cc1C(=O)O [Example 365, 5-[(5-biphenyl-4-yl-6-fluoro-1H-benzimidazol-2-yl)oxy]-2-methylbenzoic acid] | 9 |
